Measurements as given in US20100290989A1, “COMPOSITIONS AFFECTING HYALURONIC ACID MEDIATED ACTIVITY” (LONDON HEALTH SCIENCES CENTRE RESEARCH INC., priority 2007, published 2010).
“Also recorded” adds a separate entry of the source.

How the values were obtained:
[1] = Isothermal calorimetry (ITC) of peptide binding to low molecular weight HA
Procedure: (§1) The binding of soluble peptide 15-1 to HA was next evaluated by isothermal calorimetry (ITC), to estimate a binding constant for the peptide (FIG. 2, the two lines represent two independent determinations in the figure). A buffered solution of 0.9 mM low molecular weight HA (10 kD average molecular weight) was injected into to a 0.6 mM peptide 15-1 solution. […] This peptide (and the scrambled control) have been further characterized in biological systems.

[2] = tested on: Rhamm null (Rh−/−) fibroblasts; assay: Scratch wound assay, Rhamm null fibroblast migration; format: cell-based; settings: with HA
Procedure: (§2) Scratch wound assays with Rhamm null and wildtype fibroblast cells were used to evaluate the biological properties of peptide 15-1.
(§3) Scratch wound assays are commonly used to assess the effects of drugs and drug candidates on cellular migration associated with wound closing. In a typical scratch wound assay, cells are plated to confluence in a multiwell plate. A single scratch wound is created in each well. The plate is then imaged at fixed time intervals. Cell number in the area of the scratch wound can be quantified to evaluate the characteristics of wound closing in the presence of pharmacological agents.
(§4) The lack of HA induced migration was reversed by re-expression of Rhamm (FIG. 3a).

[3] = Isothermal calorimetry (ITC) of peptide binding to high molecular weight HA; settings: high molecular weight HA used instead of fragmented HA
From the text: as §1, with “figure).” for “figure). A buffered solution of 0.9 mM low molecular weight HA (10 kD average molecular weight) was injected into to a 0.6 mM peptide 15-1 solution.”

[4] = tested on: Prostate tumor PC3M-LN4 cells; assay: Methylcellulose assay, anchorage-independent growth of prostate tumor cells with peptide; format: cell-based; settings: 50 micromolar peptide; PC3M-LN4 in methylcellulose; 7 days
Procedure: A methylcellulose assay was adapted to evaluate anchorage-independent growth of prostate tumor cells in vitro. This assay offers advantages over agarose since the gels can be easily solubilized, allowing for recovery and quantification/biochemical characterization of cells at the end of the experiment. Prostate tumor PC3M-LN4 cells which synthesize large amounts of HA grow in this assay to form large multicellular colonies. Cells were recovered and counted after 7 days of incubation.
Fifteen thousand PC3M-LN4 cells were seeded into methylcellulose in the presence of 50 micromolar of the HA binding peptide 15-1 or scrambled peptide. Each peptide was mixed with PC3M-LN4 cells prior to culturing these cells in methylcellulose (FIG. 4). Culturing these cells in the presence of 50 micromolar peptide 15-1 inhibits anchorage-independent growth by 80%, which is highly statistically significant (FIG. 4).

MDA-MB-231 cells = assay: Scratch wound assay, breast cancer cell migration; format: cell-based, human; settings: 30 ug/ml, 24 hrs, versus scrambled control peptide
Procedure: A confluent monolayer of MDA-MB-231 cells were scratched using a pipette tip. Cells were incubated in medium containing either peptide 15-1 (STMMSRSHKTRSHHV) or scrambled control peptide (HKSVSRHTSMRHSTM) (30 ug/ml). After 24 hrs, cells that migrated into the scratch were counted.

MDA-MB 231 cells = assay: Methylcellulose assay, anchorage independent growth of breast cancer cells; format: cell-based, human; settings: MDA-MB 231 in methylcellulose; 30 ug/ml; one week; versus scrambled control peptide
Procedure: MDA-MB 231 cells were grown in Methylcellulose containing either peptide 15-1 (STMMSRSHKTRSHHV) or scrambled control peptide (HKSVSRHTSMRHSTM) (30 ug/ml). One week later, cells were counted.

prostate tumor cells = assay: In vivo growth of subcutaneously injected, peptide-pretreated tumor cells; design: species or system NOD.CB17 SCID mice; settings: cells pretreated with 50 micromolar peptide, tumors harvested after 28 days
Procedure: Studies have also been performed to determine if peptide 15-1 can inhibit tumor growth in a more complex microenvironment (FIG. 5). One hundred thousand tumor cells pretreated with 50 micromolar peptide 15-1 were injected subcutaneously into NOD.CB17 SCID mice. Twenty eight days later the mice were euthanized and the tumors harvested and analyzed.

[5] = tested on: wild-type dermal fibroblast cells; assay: Scratch wound assay, wild-type fibroblast migration; format: cell-based; settings: migration stimulated by 30-mer HA
Procedure: as §2, §3, §4
The scratch wound assay was also used to determine the ability of various sizes of HA oligomers to promote migration of wild-type dermal fibroblast cells (FIGS. 8a and 8b).

Row | Kd ([1]; 0.9 mM low molecular weight HA (10 kD average) injected into 0.6 mM peptide solution, estimated, read-out: binding constant (Kd)) [nM] | interaction with high molecular weight HA [3] | interaction with HA ([1]; low molecular weight HA (10 kD average), same conditions as peptide 15-1) | Sequence | inhibition of migration of Rhamm null cells [2] | inhibition of anchorage-independent growth [4] [%] | scratch wound induced migration of human breast cancer cells (MDA-MB-231 cells) | anchorage independent growth of human breast cancer cells (MDA-MB 231 cells) | tumor growth (prostate tumor cells) | inhibition of HA stimulated migration of wildtype cells [5]
1 | 100 | greatly reduced |  | STMMSRSHKTRSHHV [peptide 15-1] | resistant to the inhibitory effects | 80 | reduces scratch wound induced migration | reduce anchorage independent growth | decrease in tumor growth | sensitive to the inhibitory effects; also recorded: inhibited
2 |  |  | did not interact with HA | HKSVSRHTSMRHSTM [scrambled peptide, scrambled counterpart of peptide 15-1 used as a control, reference compound] |  |  |  |  |  | 
